Source: patent publication US20230286973A1, “PROTEIN SECRETION INHIBITORS” (KEZAR LIFE SCIENCES, priority 2020, published 2023)
Where two headings read alike, the source gives them in different places.

Assays:
[1] = tested on: TNFα-FL/Gaussia Luciferase; experiment: Dox Induced TNFα-FL-Gluc Assay; assay type: cell-based; conditions: for IC50: 24 hr Dox induction, 293FRT/TO cells, read-out: 24 hr Dox Inducible TNFaFLGluc 293FRT/TO: Mean IC50; for 24 hr Dox Inducible TNFaFLGluc 293FRT/TO: TNF/PD1: ratio of TNFaFLGluc IC50 to PD1ssGluc IC50
Summary of the method: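 Doxycycline-inducible Gaussia luciferase-tagged full-length TNFα (1-233) was expressed in stable Flp-In 293 T-REx cells. Compounds were co-added with doxycycline and incubated at 37 °C, 5% CO2.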

[2] = Liver Microsome Stability Assay (monkey); conditions: monkey liver microsomes, with NADPH, 1.0 uM compound
Protocol: (§1) Stability of a compound was assessed in the presence of liver microsomes from various sources—mouse, rat, monkey and human liver microsomes. 1.0 uM compound, 0.4% DMSO in 0.1 M Potassium Phosphate with 1.0 mg/mL liver microsomes, were incubated at 37° C. with or without 1 mM NADPH. The samples were quenched at 0, and 30 minutes.

[3] = tested on: PD1-ss+10aa/Gaussia Luciferase; experiment: Dox-Induced PD1-ss-Gluc Assay; assay type: cell-based; conditions: 24 hr Dox induction, 293FRT/TO cells, read-out: 24 hr Dox Inducible PD1ssGluc 293FRT/TO: Mean IC50
Summary of the method: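 Gaussia luciferase fused downstream of the PD1 signal peptide plus 10 residues was expressed on doxycycline induction in stably transfected Flp-In 293 T-REx cells. Compounds were added with doxycycline and incubated at 37 °C, 5% CO2.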

[4] = Liver Microsome Stability Assay (mouse); conditions: mouse liver microsomes, with NADPH, 1.0 uM compound
Protocol: as §1

[5] = Liver Microsome Stability Assay (human); conditions: human liver microsomes, with NADPH, 1.0 uM compound
Protocol: as §1

[6] = Liver Microsome Stability Assay (rat); conditions: rat liver microsomes, with NADPH, 1.0 uM compound
Protocol: as §1

[7] = tested on: HER3-ss+4aa/Gaussia Luciferase; experiment: Dox-Induced Her3-ss-Gluc Assay; assay type: cell-based; conditions: 24 hr Dox induction, 293FRT/TO cells, read-out: 24 hr Dox Inducible Her3(ss + 4)Gluc 293FRT/TO: Mean IC50
Summary of the method: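 Reporter line: Flp-In 293 T-REx, T-REx-regulated HER3-ss+4aa fused to Gaussia luciferase. Compound co-added with doxycycline after overnight plating, 37° C., 5% CO2.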

[8] = tested on: multiple myeloma cell line U266B1; experiment: U266 Cell Viability Assay; assay type: cell-based, human; conditions: Homo sapiens, U-266, 48 h, U266B1 cells, Celltiter-Glo
Summary of the method: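 Viability is measured as luciferase signal from CellTiter-Glo following a 48-hour incubation with compound at 37° C. under 5% CO2. Where structures lack drawn stereochemistry, values refer to stereoisomer mixtures.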

[9] = tested on: multiple myeloma cell line NCI-H929; experiment: H929 Cell Viability Assay; assay type: cell-based, human; conditions: Homo sapiens, NCI-H929, 48 h, NCI-H929 cells, Celltiter-Glo
Summary of the method: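 Viability is scored by CellTiter-Glo luminescence following a 48-hour treatment at 37° C. Data for structures shown without stereochemistry refer to stereoisomer mixtures.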

[10] = tested on: IL-2-FL/Gaussia Luciferase; experiment: Dox Induced IL2-FL-Gluc Assay; assay type: cell-based; conditions: for IC50: 24 hr Dox induction, 293FRT/TO cells, read-out: 24 hr Dox Inducible IL2FLGluc 293FRT/TO: Mean IC50; for 24 hr Dox Inducible IL2FLGluc 293FRT/TO: IL2/PD1: ratio of IL2FLGluc IC50 to PD1ssGluc IC50
Summary of the method: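 Doxycycline induces an IL-2(1-153)–Gaussia luciferase fusion in a stable Flp-In 293 T-REx line. Compound exposure runs alongside induction at 37° C.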

[11] = '<=>' given where both are I.A.

SMILES	IC50 [1]	24 hr Dox Inducible TNFaFLGluc 293FRT/TO: TNF/PD1 [1]	Liver Microsome Stability (Multiple Species): Monkey - % Remaining after 30 min w/NADPH [2]	IC50 [3]	Liver Microsome Stability (Multiple Species): Mouse - % Remaining after 30 min w/NADPH [4]	Liver Microsome Stability (Multiple Species): Human - % Remaining after 30 min w/NADPH [5]	Liver Microsome Stability (Multiple Species): Rat - % Remaining after 30 min w/NADPH [6]	IC50 [7]	EC50 [8]	EC50 [9]	IC50 [10]	24 hr Dox Inducible IL2FLGluc 293FRT/TO: IL2/PD1 [10]	IC50 ([1]; mean)	24 hr Dox Inducible TNFaFLGluc 293FRT/TO: TNF/PD1 [1, 11]	IC50 ([3]; mean)	IC50 ([7]; mean)	IC50 ([10]; mean)	24 hr Dox Inducible IL2FLGluc 293FRT/TO: IL2/PD1 [10, 11]
Cc1ccc(N2CCC[C@@H]2c2csc(NC(=O)c3cccn3Cc3ccncc3)n2)cc1 [Compound A21, (R)-1-(pyridin-4-ylmethyl)-N-(4-(1-(p-tolyl)pyrrolidin-2-yl)thiazol-2-yl)-1H-pyrrole-2-carboxamide]	0.0272 µM	30.4	1.43%	0.00089 µM	6.31%	4.28%	11%	0.00261 µM	> 25 µM	0.0541 µM	0.00387 µM	4.3	–	–	–	–	–	–
Cc1c(/C=C/c2csc(NC(=O)c3cccn3Cc3ccnc(F)c3)n2)ncn1C(C)C [Compound B116, (E)-1-((2-fluoropyridin-4-yl)methyl)-N-(4-(2-(1-isopropyl-5-methyl-1H-imidazol-4-yl)vinyl)thiazol-2-yl)-1H-pyrrole-2-carboxamide]	–	–	0.16%	–	11.3%	0.16%	8.66%	–	9.48 µM	8.45 µM	–	–	18.8 µM	1780	0.0105 µM	3.69 µM	5.27 µM	500
CC(C)n1cnc(/C=C/c2csc(NC(=O)c3cccn3Cc3cc(F)nc(F)c3)n2)c1 [Compound B68, (E)-1-((2,6-difluoropyridin-4-yl)methyl)-N-(4-(2-(1-isopropyl-1H-imidazol-4-yl)vinyl)thiazol-2-yl)-1H-pyrrole-2-carboxamide]	> 25 µM	>71.9	0.07%	0.348 µM	14%	0.5%	19.9%	18.2 µM	14.6 µM	10.1 µM	> 25 µM	>72	–	–	–	–	–	–
O=C(Nc1nc(C2C3CN(c4ccccn4)CC32)cs1)c1cccn1Cc1ccncc1 (stereo not drawn) [Compound E33, N-(4-(3-(pyridin-2-yl)-3-azabicyclo[3.1.0]hexan-6-yl)thiazol-2-yl)-1-(pyridin-4-ylmethyl)-1H-pyrrole-2-carboxamide]	–	–	0.1%	–	2.58%	1.6%	0.18%	–	> 25 µM	> 25 µM	–	–	> 25 µM	>20.3	1.23 µM	3.92 µM	14.8 µM	12
C[C@H](N)c1ccc(N2CCC[C@@H]2c2csc(NC(=O)c3cccn3Cc3ccncc3)n2)cc1 [Compound A71, N-(4-((R)-1-(4-((S)-1-aminoethyl)phenyl)pyrrolidin-2-yl)thiazol-2-yl)-1-(pyridin-4-ylmethyl)-1H-pyrrole-2-carboxamide]	3.7 µM	27.2	36.1%	0.136 µM	95.6%	51.8%	82.1%	0.148 µM	7.8 µM	4.41 µM	0.366 µM	2.7	–	–	–	–	–	–
O=C(Nc1nc([C@H]2CCCN2c2cccnn2)cs1)c1cccn1Cc1ccncc1 [Compound A29, (R)-N-(4-(1-(pyridazin-3-yl)pyrrolidin-2-yl)thiazol-2-yl)-1-(pyridin-4-ylmethyl)-1H-pyrrole-2-carboxamide]	13.1 µM	24.4	0.39%	0.534 µM	1.4%	0.59%	4.6%	1.13 µM	> 25 µM	> 25 µM	2.22 µM	4.1	–	–	–	–	–	–
O=C(Nc1nc([C@H]2CCCN2c2ccc(OC3COC3)cc2)cs1)c1cccn1Cc1ccncc1 [Compound A2, (R)-N-(4-(1-(4-(oxetan-3-yloxy)phenyl)pyrrolidin-2-yl)thiazol-2-yl)-1-(pyridin-4-ylmethyl)-1H-pyrrole-2-carboxamide]	0.211 µM	11.6	0.18%	0.0182 µM	6.6%	0.92%	7.5%	0.0314 µM	> 25 µM	1.34 µM	0.034 µM	1.9	–	–	–	–	–	–
N#CC1CC1Cn1cccc1C(=O)Nc1nc([C@H]2CCCN2c2ccccc2)cs1 (stereo partly drawn) [Compound C6, 1-((2-cyanocyclopropyl)methyl)-N-(4-((R)-1-phenylpyrrolidin-2-yl)thiazol-2-yl)-1H-pyrrole-2-carboxamide]	–	–	7.86%	–	31.1%	32.8%	8.19%	–	15.3 µM	11.8 µM	–	–	> 25 µM	>9.60	2.6 µM	5.22 µM	7.29 µM	2.8
CCn1cnc(/C=C/c2csc(NC(=O)c3cccn3Cc3ccnc(F)c3)n2)c1 [Compound B65, (E)-N-(4-(2-(1-ethyl-1H-imidazol-4-yl)vinyl)thiazol-2-yl)-1-((2-fluoropyridin-4-yl)methyl)-1H-pyrrole-2-carboxamide]	> 25 µM	>208	0.08%	0.12 µM	7.82%	0.18%	4.75%	> 25 µM	> 25 µM	24.5 µM	> 25 µM	>210	–	–	–	–	–	–
